As usually defined, the IC50 is the concentration that gives 50% inhibition. The term CC50 denotes the concentration at which the toxic effect on the cells reaches its halfway point. Low values mean greater toxicity to the cells, high ones lower toxicity to the cells.

The results in this text go back to ChEMBL document CHEMBL1129529, “Synthesis and antiviral activity of pyranosylphosphonic acid nucleotide analogues” (J Med Chem, 1996).

Test [1] concerns NHDF. The experiment in a line: Inhibitory activity against replication of HCMV in NHDF cells. The format is functional, cell-based. The conditions noted are these: Homo sapiens.
The subject of test [2] is NHDF. The experiment in a line: Cytotoxic activity against NHDF cell growth. The format is functional. The note with it: Homo sapiens.
Test [3] is described as follows: Selectivity index is defined as ratio between IC50(NHDF) / IC50(HCMV). The format is functional.
Test [4] concerns NHDF. Nature of the test: Cytotoxic activity against NHDF cell growth; Not active. The format is functional, cell-based, Homo sapiens.
For test [5], the system named is NHDF. Nature of the test: Inhibitory activity against replication of HCMV in NHDF cells; Not active. The test is classed as functional, cell-based, Homo sapiens.
In test [6] the test system is MRC5. The experiment in a line: Inhibitory activity against cytopathic effect of HSV-2(E 194) in MRC-5 cells; Not active. The test is classed as functional, cell-based, Homo sapiens. (Cytopathic effects are the visible damage that an infection or toxin causes in cultured cells.)
Test [7] relates to MRC5. Nature of the test: Inhibitory activity against cytopathic effect of HSV-2(E 194) in MRC-5 cells. The test is classed as functional, cell-based. The conditions noted are these: Homo sapiens.

On to `Nc1ncnc2c1ncn2C1CC=C(P(=O)(O)O)OC1CO` (stereo not given), for which it took 90 µM to reach half-maximal inhibition in the test with NHDF [1] (IC50). In addition, the cytotoxic concentration (CC50) with NHDF [2] is more than 1000 µM. Also, the Selectivity ratio in test [3] is more than 11.
Take `Cc1cn([C@@H]2C=C[C@@H](P(=O)(O)O)O[C@@H]2CO)c(=O)[nH]c1=O`: the concentration for half-maximal inhibition (IC50) entry in the test with NHDF [4], with NHDF [5] and with MRC5 [6] was “Not Active” throughout.
Regarding `Nc1ncnc2c1ncn2[C@@H]1C=C[C@H](P(=O)(O)O)O[C@@H]1CO`, the IC50 result in the test on NHDF [4], in the test with NHDF [5] and in the test with MRC5 [6] was “Not Active” each time.
Turning to `Cc1cn(C2CC=C(P(=O)(O)O)OC2CO)c(=O)[nH]c1=O` (stereo not given), the IC50 entry in the test with NHDF [4], in the test on NHDF [5] and with MRC5 [6] was “Not Active” in each case.
For `Cc1cn([C@@H]2C=C[C@H](P(=O)(O)O)O[C@@H]2CO)c(=O)[nH]c1=O`, the IC50 result in the test with NHDF [4], in the test with NHDF [5] and with MRC5 [6] was “Not Active” in each case.
`Nc1ccn(C[C@@H](CO)OCP(=O)(O)O)c(=O)n1` [CIDOFOVIR]: the half-maximal inhibitory concentration (IC50) is 0.5 µM in the test on NHDF [1] and 10 µM in the test on MRC5 [7]. For the same compound, half-maximal cytotoxicity with NHDF [2] (CC50) was put at 200 µM. In test [3], the Selectivity ratio is 400.
Consider `Nc1ccn(C2CCC(P(=O)(O)O)OC2CO)c(=O)n1` (stereo not given), for which the half-maximal inhibitory concentration (IC50) with NHDF [1] is 80 µM. Besides, the CC50 in the test on NHDF [2] is more than 1000 µM. For the same compound, the Selectivity ratio in test [3] was more than 12.
For `CC1OC(P(=O)(O)O)=CCC1n1ccc(N)nc1=O` (stereo not given), the IC50 with NHDF [1] was 300 µM; in the test on MRC5 [7], more than 400 µM. Besides, the CC50 in the test on NHDF [2] was more than 1000 µM. In addition, the Selectivity ratio in test [3] was more than 3.3.
As for `Cc1cn(C2C=CC(P(=O)(O)O)OC2C)c(=O)[nH]c1=O` (stereo not given), the IC50 entry in the test with NHDF [4], in the test on NHDF [5] and in the test with MRC5 [6] was “Not Active” each time.
For the compound `Nc1nc(O)c2ncn([C@@H]3C=C[C@H](P(=O)(O)O)O[C@@H]3CO)c2n1`, the 50% inhibitory concentration (IC50) is more than 300 µM with NHDF [1] and 275 µM in the test on MRC5 [7]. In the test with NHDF [2], this compound gave a 50% cytotoxic concentration (CC50) of more than 1000 µM.
For `Cc1cn(C2CC=C(P(=O)(O)O)OC2C)c(=O)[nH]c1=O` (stereo not given), the concentration for half-maximal inhibition (IC50) result in the test with NHDF [4], in the test on NHDF [5] and in the test with MRC5 [6] was “Not Active” throughout.
Consider `CC1OC(P(=O)(O)O)=CCC1n1cnc2c(N)ncnc21` (stereo not given), for which the half-inhibitory concentration (IC50) entry in the test on NHDF [4], in the test on NHDF [5] and with MRC5 [6] was “Not Active” throughout.
For the compound `Nc1ccn([C@@H]2C=C[C@H](P(=O)(O)O)O[C@@H]2CO)c(=O)n1`, the IC50 in the test on NHDF [1] is 10 µM; with MRC5 [7] it was 85 µM. Moreover, in the test on NHDF [2], the CC50 was more than 1000 µM. The Selectivity ratio in test [3] was more than 100.
As for `Nc1ccn([C@H]2CC=C(P(=O)(O)O)O[C@H]2CO)c(=O)n1`, the half-inhibitory concentration (IC50) result in the test with NHDF [4], with NHDF [5] and with MRC5 [6] was “Not Active” in each case.
Consider `Nc1nc(O)c2ncn(C3C=CC(P(=O)(O)O)OC3CO)c2n1` (stereo not given), for which the 50% inhibitory concentration (IC50) result in the test on NHDF [4], with NHDF [5] and in the test with MRC5 [6] was “Not Active” in each case.
For `Nc1ccn([C@@H]2CC=C(P(=O)(O)O)O[C@@H]2CO)c(=O)n1`, the figures for the IC50 in the test on NHDF [1] and in the test on MRC5 [7] were 40 µM and 90 µM, respectively. In addition, in the test on NHDF [2], the half-maximal cytotoxic concentration (CC50) is more than 1000 µM. In test [3], the Selectivity ratio is more than 25.
`Nc1ccn([C@H]2C=C[C@@H](P(=O)(O)O)O[C@H]2CO)c(=O)n1`: the IC50 result with NHDF [4], in the test on NHDF [5] and in the test on MRC5 [6] was “Not Active” throughout.
For the compound `Nc1ncnc2c1ncn2[C@@H]1C=C[C@@H](P(=O)(O)O)O[C@@H]1CO`, the IC50 with NHDF [1] was more than 300 µM; with MRC5 [7], 300 µM. Moreover, the CC50 in the test on NHDF [2] is more than 1000 µM.
On to `CC1OC(P(=O)(O)O)C=CC1n1ccc(N)nc1=O` (stereo not given), for which the 50% inhibitory concentration (IC50) was 200 µM in the test with NHDF [1] and more than 400 µM with MRC5 [7]. Besides, the half-maximal cytotoxic concentration (CC50) in the test with NHDF [2] was more than 1000 µM. Moreover, the Selectivity ratio in test [3] was more than 5.
For the compound `Nc1nc(O)c2ncn([C@@H]3CC=C(P(=O)(O)O)O[C@@H]3CO)c2n1`, the 50% inhibitory concentration (IC50) entry in the test with NHDF [4], in the test on NHDF [5] and in the test on MRC5 [6] was “Not Active” throughout.
